Experimental data from publication PMC10480161, “Identification of potent and selective N-myristoyltransferase inhibitors of Plasmodium vivax liver stage hypnozoites and schizonts” (Nature Communications, 2023).
Where “and” joins values, the source holds several entries; their conditions need not be identical. Identical values can stand only once.

Tests used:
[1] = test system: primary human hepatocytes; test: Nuclear counts (DAPI) in P. vivax-infected primary hepatocytes as measure of toxicity; assay type: cell-based; conditions: two technical replicates
Protocol: Accordingly, we applied dose–response curves of all the tested NMTs on parasite isolates 2 and 3 over concentrations up to 20 µM (Fig. 5c, d, Source Data file). […] Nuclei were counted in each well using DAPI staining as a measure of toxicity (Supplementary Fig. 86, Supplementary Source data). We used the phosphatidylinositol 4-kinase inhibitor (PI4Ki), MMV390048, as a positive control for eliminating schizonts[37],[38].
Plasmodium vivax liver stage assays were performed as described previously. Cryopreserved primary human hepatocytes (Cat No. F00995-P) and hepatocyte culture medium (HCM) (InVitroGroTM CP Medium) were obtained from Bioreclamation IVT, Inc., (Baltimore, MD, USA). Briefly, we seeded 384-well plates with primary hepatocytes from a single donor lot at a density of 25,000 cells per well. We then infected the hepatocytes with 14,000 freshly hand-dissected sporozoites per well. Cells were exposed to the compounds at indicated concentrations from day 5 post-infection. We used Pi4K inhibitor MMV390048, at 20 µM, as a positive control to eliminate P. vivax liver schizonts. We then proceeded to feed cultures every day, replacing the compounds until day 8 post-infection. Cells were fixed with 4% PFA, permeabilized with 1% Triton X-100, blocked with 2% BSA, and stained with DAPI and PvUIS4 antibodies to detect schizonts and hypnozoites forms by confocal microscopy. […] DAPI was diluted 1:2000. The images were processed, analyzed and outlier cells were removed using IMARIS (Bitplane Inc.) image analysis software.
Supplementary Fig. 86. […] Nuclear […]
counts, normalized to DMSO controls, for NMT inhibitors across a dose response. Counts were ob-tained using DAPI staining from the P. vivax-infected wells quantified in Fig. 5d. Error bars represent the standard deviation of two technical replicates.
(1 picture or pasted object on this page, not shown here)

[2] = test system: P. vivax schizonts; test: P. vivax liver stage assay, schizonts; assay type: cell-based, Plasmodium vivax; conditions: for Number of liverstage Schizonts per well: 20 µM, 8 dpi; for IC50: Plasmodium vivax, Hepatocyte, 120 h, primary human hepatocytes, treatment day 5 to 8 post-infection, isolates 2 and 3
How it was run: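 Compound exposure ran days 5–8 post-infection with daily refeeding, dose-response up to 20 µM, MMV390048 at 20 µM as positive control. Host cells were single-lot primary human hepatocytes infected with freshly dissected P. vivax sporozoites; fixed cultures stained with anti-PvUIS4 and DAPI, schizonts quantified by confocal microscopy.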

[3] = HepG2 cytotoxicity assay (Live/Dead staining); conditions: human, HepG2 cells
How it was run: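 Live/dead fluorescence microscopy (calcein-AM and ethidium homodimer, 1 µM each) read at 72 h post-treatment. Compounds dosed at 1 to 20 µM on HepG2 cells, with washing and fresh compound every 24 h.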

[4] = isolate 1, technical replicates (Fig. 5b)
[5] = isolate 2, technical replicates (Fig. 5b)
[6] = isolate 3, technical replicates (Fig. 5b)

SMILES: Cc1nn(C)c(C)c1CCOc1cc(F)ccc1-c1cccc(OCCN(C)C)c1 [Compound 26c]
- Nucleus counts per well ([1]; 1 uM): 16190 per well and 15050 per well
- Nucleus counts per well ([1]; 2.5uM): 15160 per well and 15950 per well
- Nucleus counts per well ([1]; 5 uM): 16180 per well and 14300 per well
- Nucleus counts per well ([1]; 10uM): 14610 per well and 15250 per well
- Nucleus counts per well ([1]; 20uM, P. vivax-infected wells): 12520 per well and 13160 per well
- Number of liverstage Schizonts per well [2, 4]: 0 per well
- Number of liverstage Schizonts per well [2, 5]: 3 per well and 0 per well (2×)
- Number of liverstage Schizonts per well [2, 6]: 2 per well and 1 per well
- Schizonts per well ([2]; Isolate 2, 1.25 uM): 14 per well and 13 per well and 12 per well
- Schizonts per well ([2]; Isolate 2, 2.5 uM): 10 per well and 15 per well and 13 per well
- Schizonts per well ([2]; Isolate 2, 5 uM): 7 per well and 12 per well and 8 per well
- Schizonts per well ([2]; Isolate 2, 10 uM): 5 per well and 3 per well and 6 per well
- Schizonts per well ([2]; Isolate 3, 1.25 uM): 11 per well and 9 per well
- Schizonts per well ([2]; Isolate 3, 2.5 uM): 6 per well and 10 per well
- Schizonts per well ([2]; Isolate 3, 5 uM): 7 per well and 5 per well
- Schizonts per well ([2]; Isolate 3, 10 uM): 4 per well and 2 per well
- Schizonts per well ([2]; Isolate 3, 20 uM (Fig. 5c-d)): 2 per well and 1 per well
- IC50 [2]: 2.8 to 4.2 µM
- schizonts (fold change to DMSO) mean diff ([2]; isolate 1, 20 µM): 1.000
- schizonts (fold change to DMSO) mean diff ([2]; isolate 2, 20 µM): 0.9434
- schizonts (fold change to DMSO) mean diff ([2]; isolate 3, 20 µM): 0.8977
- IC50 at 48 h [3]: > 20 µM

SMILES: Cc1n[nH]c(C)c1CCOc1cc(F)ccc1-c1cccc(OCCN(C)C)c1 [Compound 26i]
- Nucleus counts per well ([1]; 1 uM): 15030 per well and 14960 per well
- Nucleus counts per well ([1]; 2.5uM): 13600 per well and 14280 per well
- Nucleus counts per well ([1]; 5 uM): 12980 per well and 13510 per well
- Nucleus counts per well ([1]; 10uM): 14570 per well and 13510 per well
- Nucleus counts per well ([1]; 20uM, P. vivax-infected wells): 12860 per well and 13500 per well
- Number of liverstage Schizonts per well [2, 4]: 2 per well (2×) and 0 per well
- Number of liverstage Schizonts per well [2, 5]: 2 per well (2×) and 4 per well
- Number of liverstage Schizonts per well [2, 6]: 3 per well and 2 per well
- Schizonts per well ([2]; Isolate 2, 1.25 uM): 14 per well and 13 per well
- Schizonts per well ([2]; Isolate 2, 2.5 uM): 14 per well and 11 per well and 12 per well
- Schizonts per well ([2]; Isolate 2, 5 uM): 10 per well and 9 per well and 7 per well
- Schizonts per well ([2]; Isolate 2, 20 uM (Fig. 5c-d)): 2 per well and 4 per well
- Schizonts per well ([2]; Isolate 3, 1.25 uM): 12 per well and 13 per well
- Schizonts per well ([2]; Isolate 3, 2.5 uM): 10 per well and 9 per well
- Schizonts per well ([2]; Isolate 3, 5 uM): 8 per well and 9 per well
- Schizonts per well ([2]; Isolate 3, 20 uM (Fig. 5c-d)): 3 per well and 2 per well
- IC50 [2]: 3.3 to 5.2 µM
- schizonts (fold change to DMSO) mean diff ([2]; isolate 1, 20 µM): 0.933
- schizonts (fold change to DMSO) mean diff ([2]; isolate 2, 20 µM): 0.8491
- schizonts (fold change to DMSO) mean diff ([2]; isolate 3, 20 µM): 0.8295
- IC50 at 48 h [3]: > 20 µM

SMILES: c1cncc(CCOc2ccc3ccccc3c2-c2ccnc(N3CCNCC3)c2)c1 [Compound 30c]
- Nucleus counts per well ([1]; 1 uM): 12390 per well and 13530 per well
- Nucleus counts per well ([1]; 2.5uM): 13960 per well and 13570 per well
- Nucleus counts per well ([1]; 5 uM): 14060 per well and 13800 per well
- Nucleus counts per well ([1]; 10uM): 13530 per well and 13880 per well
- Nucleus counts per well ([1]; 20uM, P. vivax-infected wells): 14090 per well and 14800 per well
- Number of liverstage Schizonts per well [2, 4]: 0 per well (2×) and 6 per well
- Number of liverstage Schizonts per well [2, 5]: 3 per well and 4 per well and 6 per well
- Number of liverstage Schizonts per well [2, 6]: 1 per well and 3 per well
- Schizonts per well ([2]; Isolate 2, 1.25 uM): 12 per well and 14 per well and 13 per well
- Schizonts per well ([2]; Isolate 2, 2.5 uM): 9 per well and 14 per well and 11 per well
- Schizonts per well ([2]; Isolate 2, 5 uM): 7 per well and 10 per well and 9 per well
- Schizonts per well ([2]; Isolate 2, 10 uM): 4 per well and 5 per well and 6 per well
- Schizonts per well ([2]; Isolate 2, 20 uM (Fig. 5c-d)): 3 per well and 4 per well and 6 per well
- Schizonts per well ([2]; Isolate 3, 1.25 uM): 13 per well and 10 per well
- Schizonts per well ([2]; Isolate 3, 2.5 uM): 12 per well and 9 per well
- Schizonts per well ([2]; Isolate 3, 5 uM): 7 per well and 10 per well
- IC50 [2]: 2.7 to 4.9 µM
- schizonts (fold change to DMSO) mean diff ([2]; isolate 1, 20 µM): 0.900
- schizonts (fold change to DMSO) mean diff ([2]; isolate 2, 20 µM): 0.7547
- schizonts (fold change to DMSO) mean diff ([2]; isolate 3, 20 µM): 0.8636
- IC50 at 48 h [3]: > 20 µM
